Laboratory results: the NIST ThermoML archive (doi:10.1021/acs.jced.7b00717)
Numbers after ± are expanded uncertainties.

Assays:
[1] = xn = mol fraction of the nth substance listed; conditions: Liquid, dynamic ligfht scattering
[2] = refractive index (other wavelength) (dimensionless); xn = mol fraction of the nth substance listed; conditions: Liquid, Wavelength=532 nm

OCC(O)CO [glycerol] + O
[1]
Conditions	binary diffusion coefficient [m2/s]
322.99 K, x1 = 0.5	2.54e-10
323.07 K, x1 = 0.699	1.4e-10
323.15 K, x1 = 0.299	5.6e-10
347.98 K, x1 = 0.5	5.69e-10
348.19 K, x1 = 0.299	1.04e-09
351.63 K, x1 = 0.699	3.69e-10
372.92 K, x1 = 0.699	6.93e-10
373.17 K, x1 = 0.5	1.04e-09
373.3 K, x1 = 0.299	1.73e-09
397.7 K, x1 = 0.699	1.45e-09
398.05 K, x1 = 0.299	2.84e-09
398.12 K, x1 = 0.5	1.9e-09
422.61 K, x1 = 0.299	4.12e-09
423.15 K, x1 = 0.5	2.87e-09
448.21 K, x1 = 0.5	4.8e-09

[2]
Conditions	refractive index
295.65 K, Standard Abbe refractometry, x1 = 0.299	1.422 ± 0.001
296.15 K, beam displacement method, x1 = 0.699	1.461 ± 0.005
314.15 K, Standard Abbe refractometry, x1 = 0.299	1.42 ± 0.001
322.99 K, beam displacement method, x1 = 0.5	1.436 ± 0.005
323.15 K, beam displacement method, x1 = 0.299	1.417 ± 0.005
331.65 K, Standard Abbe refractometry, x1 = 0.299	1.415 ± 0.001
347.96 K, beam displacement method, x1 = 0.5	1.43 ± 0.005
348.15 K, beam displacement method, x1 = 0.299	1.411 ± 0.005
348.45 K, beam displacement method, x1 = 0.699	1.445 ± 0.005
373.05 K, beam displacement method, x1 = 0.699	1.438 ± 0.005
373.16 K, beam displacement method, x1 = 0.299	1.403 ± 0.005
373.23 K, beam displacement method, x1 = 0.5	1.423 ± 0.005
398.11 K, beam displacement method, x1 = 0.5	1.417 ± 0.005
398.15 K, beam displacement method, x1 = 0.299	1.396 ± 0.005
398.25 K, beam displacement method, x1 = 0.699	1.431 ± 0.005
421.85 K, beam displacement method, x1 = 0.699	1.424 ± 0.005
423.15 K, beam displacement method, x1 = 0.5	1.409 ± 0.005
